Results from US20260285816A1, “Piperazinyl-Modified Quinazolinyl-Aryl Urea Derivative, And Preparation Method And Use Thereof” (Guangxi Normal University, priority 2025, published 2026).

Tests used:
Assay type in all cases: cell-based, human
[1] = tested on: PANC-1 cells; experiment: CCK-8 anti-proliferative assay, PANC-1; conditions: Homo sapiens, PANC-1; Table 15; comparative compounds; co-incubated 48 h; read-out: Anti-proliferative activity (IC50 ± standard deviation) PANC-1
Source text: (§1) The obtained quinazolinyl-aryl urea derivatives were screened for compounds with optimal activity using the following method. All cell lines employed in this experiment were of human origin, including: bladder cancer cells: J82, UM-UC-3, T24, 5637, pancreatic cancer cells: BxPC-3, PANC-1, osteosarcoma cells: 143B, MG-63, cervical cancer cells: HeLa, breast cancer cells: MCF-7, NSCLC cells: A549, hepatoblastoma cells: Hep G2, and ovarian cancer cells: SK-OV-3, as well as normal cell lines: immortalized ureteral epithelial cells (SV-HUC-1), embryonic lung fibroblasts (WI-38).
(§2) Experimental Procedure for Anti-Proliferative Activity Evaluation: The CCK-8 assay was employed. Cells in logarithmic growth phase were harvested, adjusted to appropriate density, and uniformly seeded into 96-well plates using a multichannel pipette (180 μL cell suspension containing complete medium per well, 5,000 cells/well). Blank control wells (containing basal medium, CCK-8 solution, and DMSO only) were set. Cells were incubated at 37° C. under 5% CO2. After 70% confluency was reached, test compounds (target compounds/positive controls) were added at final concentrations of 1, 2, 4, 6, 8, 12, 16, 24, and 30 μM (3 repeated wells per concentration). Compounds were pre-dissolved in DMSO, sterilized, and diluted with medium before adding 20 μL/well. After co-incubation for designated durations, 10 μL CCK-8 solution was added per well followed by 1-4 h incubation (different cells have different incubation times). The reaction was terminated, and OD (optical density) values at 450 nm were measured using a microplate reader. Inhibition rates were calculated as: (ODcontrol−ODtreatment)/ODcontrol×100%. Median inhibitory concentrations (IC50 values) were derived using Origin v8.0 software.

[2] = tested on: SK-OV-3 cells; experiment: CCK-8 anti-proliferative assay, SK-OV-3; conditions: Homo sapiens, SK-OV-3; Table 15; comparative compounds; co-incubated 48 h; read-out: Anti-proliferative activity (IC50 ± standard deviation) SK-OV-3
Description: (§3) The obtained quinazolinyl-aryl urea derivatives were screened for compounds with optimal activity using the following method.
as §2, with “The reaction was terminated, and OD (optical density) values at 450 nm were measured using a microplate reader.” left out

[3] = tested on: MG-63 cells; experiment: CCK-8 anti-proliferative assay, MG-63; conditions: Homo sapiens, MG-63; Table 14; comparative compounds; co-incubated 48 h; read-out: Anti-proliferative activity (IC50 ± standard deviation) MG-63
Source text: as §1, §2

[4] = tested on: BxPC-3 cells; experiment: CCK-8 anti-proliferative assay, BxPC-3; conditions: Homo sapiens, BXPC-3; Table 15; comparative compounds; co-incubated 48 h; read-out: Anti-proliferative activity (IC50 ± standard deviation) BxPC-3
Source text: as §1, §2

[5] = tested on: UM-UC-3 cells; experiment: CCK-8 anti-proliferative assay, UM-UC-3; conditions: Homo sapiens, UMUC3; Table 14; comparative compounds; co-incubated 48 h; read-out: Anti-proliferative activity (IC50 ± standard deviation) UM-UC-3
Description: as §3
as §2, with “The reaction was terminated, and OD (optical density) values at 450 nm were measured using a microplate reader.” left out

[6] = tested on: 143B cells; experiment: CCK-8 anti-proliferative assay, 143B; conditions: Homo sapiens, 143B; Table 14; comparative compounds; co-incubated 48 h; read-out: Anti-proliferative activity (IC50 ± standard deviation) 143B
Source text: as §1, §2

[7] = tested on: immortalized ureteral epithelial cells (SV-HUC-1); experiment: CCK-8 anti-proliferative assay, normal cells SV-HUC-1; conditions: Homo sapiens, SV-HUC1, 48 h, read-out: Anti-proliferative activity (IC50 ± standard deviation) SV-HUC-1
Description: as §3
as §2, with “The reaction was terminated, and OD (optical density) values at 450 nm were measured using a microplate reader.” left out

SMILES | IC50 [1] | IC50 [2] | IC50 [3] | IC50 [4] | IC50 [5] | IC50 [6] | IC50 [7]
COc1cc2ncnc(NCc3cccc(NC(=O)Nc4ccccc4Cl)c3)c2cc1OC [Compound I-10, reference compound] | 11.7 ± 0.82 µM | 11.2 ± 0.92 µM | 11.1 ± 0.54 µM | 9.85 ± 0.76 µM | 8.77 ± 0.41 µM | 7.74 ± 0.39 µM | –
COc1cc2ncnc(NCc3cccc(NC(=O)NCc4ccccc4)c3)c2cc1OC [Compound I-14, reference compound] | > 30 µM | 19.7 ± 0.73 µM | > 30 µM | 12.3 ± 0.56 µM | > 30 µM | > 30 µM | –
O=C(Nc1ccccc1)Nc1cccc(CNc2ncnc3ccccc23)c1 [Compound II-1, reference compound] | > 30 µM | > 30 µM | > 30 µM | 27.6 ± 1.91 µM | > 30 µM | > 30 µM | –
Cc1cccc(NC(=O)Nc2cccc(CNc3ncnc4ccccc34)c2)c1 [Compound II-2, reference compound] | > 30 µM | 19.5 ± 1.37 µM | 19.3 ± 1.76 µM | 15.5 ± 1.71 µM | 22.8 ± 1.38 µM | 13.2 ± 0.86 µM | –
Cc1ccc(NC(=O)Nc2cccc(CNc3ncnc4ccccc34)c2)cc1 [Compound II-3, reference compound] | > 30 µM | 14.7 ± 0.98 µM | 17.8 ± 0.95 µM | 14.3 ± 0.86 µM | 17.8 ± 0.57 µM | 11.3 ± 0.88 µM | –
CCc1cccc(CC)c1NC(=O)Nc1cccc(CNc2ncnc3ccccc23)c1 [Compound II-5, reference compound] | 14.8 ± 1.24 µM | 8.4 ± 0.53 µM | 10.5 ± 0.82 µM | 9.92 ± 0.41 µM | 8.72 ± 0.36 µM | 7.26 ± 0.35 µM | –
CC(C)(C)c1ccc(NC(=O)Nc2cccc(CNc3ncnc4ccccc34)c2)cc1 [Compound II-9, reference compound] | 15.7 ± 1.52 µM | 7.78 ± 0.69 µM | 9.24 ± 0.71 µM | 13.3 ± 0.87 µM | 9.77 ± 0.52 µM | 10.5 ± 0.43 µM | –
O=C(Nc1ccc(C(F)(F)F)cc1)Nc1cccc(CNc2ncnc3ccccc23)c1 [Compound II-13, reference compound] | 26.2 ± 2.26 µM | 15 ± 1.74 µM | 20.8 ± 0.95 µM | 8.43 ± 0.39 µM | 9.63 ± 0.52 µM | 7.56 ± 0.27 µM | –
O=C(Nc1cccc(CNc2ncnc3ccccc23)c1)Nc1ccc(Cl)cc1Cl [Compound II-17, reference compound] | 20.7 ± 0.96 µM | 9.27 ± 0.55 µM | 8.54 ± 0.59 µM | 14.2 ± 0.82 µM | 7.69 ± 0.56 µM | 10.3 ± 0.67 µM | –
CNC(=O)c1cc(Oc2ccc(NC(=O)Nc3ccc(Cl)c(C(F)(F)F)c3)c(F)c2)ccn1 [Reg, regorafenib, reference compound] | – | – | – | – | – | – | 11.4 ± 0.69 µM
